Assay [1] deals with T1, L. longbeachae LUSH SH2 domain (Legionella longbeachae, UniProt D3HPG5).
T1 construct: gene LLO_0448
The assay is classed as binding.

In assay [2] the target is T2, L. longbeachae LeSH (Legionella longbeachae, UniProt D3HJY4).
T2 construct: gene LLO_2327

pKd: −log10 of the molar value.

T1 sequence (D3HPG5 3-171 limits assumed): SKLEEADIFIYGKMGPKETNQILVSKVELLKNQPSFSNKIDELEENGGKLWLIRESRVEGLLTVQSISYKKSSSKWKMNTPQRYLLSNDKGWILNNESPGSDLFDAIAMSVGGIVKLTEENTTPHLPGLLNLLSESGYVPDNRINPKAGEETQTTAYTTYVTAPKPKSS
T2 sequence (D3HJY4 1-167 limits assumed): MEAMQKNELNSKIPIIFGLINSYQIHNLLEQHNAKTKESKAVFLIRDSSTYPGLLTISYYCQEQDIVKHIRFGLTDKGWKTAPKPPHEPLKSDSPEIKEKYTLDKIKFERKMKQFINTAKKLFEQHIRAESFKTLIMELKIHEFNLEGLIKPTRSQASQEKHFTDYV

The term pKd denotes the negative decadic logarithm of the Kd, by convention in mol/L. In assay [1], `N[C@@H](Cc1ccc(OP(=O)(O)O)cc1)C(=O)NCC(=O)O` [pY-G dipeptide] showed a pKd of 6.09. With `N[C@@H](Cc1ccc(OP(=O)(O)O)cc1)C(=O)O` [phosphotyrosine], the “X-ray crystal structure of complex” value in assay [2] was “crystal structures of LeSH in complex with three different pTyr ligands, including the phosphotyrosine itself”.
